Measured values published in ChEMBL document CHEMBL1201861, “Genomics of Drug Sensitity in Cancer screening data, Wellcome Trust Sanger Institute”.

Legend:
Assay in all cases: cells
Settings in all cases: Homo sapiens
[1] = test system: Ca9-22; assay type: functional, cell-based;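 note: growth inhibition of Ca9-22 cells, read out with a cell viability assay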
Description: SANGER: Inhibition of human Ca9-22 cell growth in a cell viability assay.

[2] = test system: DK-MG; assay type: functional, cell-based;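 note: growth inhibition of DK-MG cells, read out with a cell viability assay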
Description: SANGER: Inhibition of human DK-MG cell growth in a cell viability assay.

[3] = test system: DMS-273; assay type: functional, cell-based
Description: SANGER: Inhibition of human DMS-273 cell growth in a cell viability assay.

[4] = test system: DOK; assay type: functional, cell-based;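 note: cell viability assay read-out, values reflect inhibition of cell growth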
Description: SANGER: Inhibition of human DOK cell growth in a cell viability assay.

[5] = test system: ESS-1; assay type: functional, cell-based;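 note: growth inhibition of human ESS-1 cells, read out by a cell viability assay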
Description: SANGER: Inhibition of human ESS-1 cell growth in a cell viability assay.

[6] = test system: GCT; assay type: functional, cell-based;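 note: GCT cell line proliferation inhibition, read out with a cell viability assay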
Description: SANGER: Inhibition of human GCT cell growth in a cell viability assay.

[7] = test system: HCC1806; assay type: functional, cell-based;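 note: growth inhibition of the cancer cell line, determined with a cell viability assay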
Description: SANGER: Inhibition of human HCC1806 cell growth in a cell viability assay.

[8] = test system: HEC-1; assay type: functional, cell-based;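 note: growth inhibition of the cell line, read out with a cell viability assay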
Description: SANGER: Inhibition of human HEC-1 cell growth in a cell viability assay.

[9] = test system: HGC-27; assay type: functional, cell-based;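 note: growth inhibition of human HGC-27 cells, read out in a cell viability assay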
Description: SANGER: Inhibition of human HGC-27 cell growth in a cell viability assay.

[10] = test system: HO-1-N-1; assay type: functional, cell-based;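 note: growth inhibition of human HO-1-N-1 cells, read out with a cell viability assay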
Description: SANGER: Inhibition of human HO-1-N-1 cell growth in a cell viability assay.

[11] = test system: HPAF-II; assay type: functional, cell-based;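 note: growth inhibition of HPAF-II cells, read out with a cell viability assay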
Description: SANGER: Inhibition of human HPAF-II cell growth in a cell viability assay.

[12] = test system: HT-29; assay type: functional, cell-based;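 note: growth inhibition of human HT-29 cells, read out by a cell viability assay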
Description: SANGER: Inhibition of human HT-29 cell growth in a cell viability assay.

[13] = test system: HuO-3N1; assay type: functional, cell-based;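 note: cell viability readout used to measure how strongly compounds suppress proliferation of human HuO-3N1 cells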
Description: SANGER: Inhibition of human HuO-3N1 cell growth in a cell viability assay.

[14] = test system: HuP-T3; assay type: functional, cell-based;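 note: HuP-T3 cell growth inhibition, read out with a cell viability assay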
Description: SANGER: Inhibition of human HuP-T3 cell growth in a cell viability assay.

[15] = test system: KP-N-YN; assay type: functional, cell-based;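 note: growth inhibition of KP-N-YN cells, read out with a cell viability assay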
Description: SANGER: Inhibition of human KP-N-YN cell growth in a cell viability assay.

[16] = test system: LCLC-103H cell line; assay type: functional, cell-based
Description: SANGER: Inhibition of human LCLC-103H cell growth in a cell viability assay.

[17] = test system: LCLC-97TM1; assay type: functional, cell-based;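 note: cell viability assay measuring growth inhibition of human LCLC-97TM1 cells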
Description: SANGER: Inhibition of human LCLC-97TM1 cell growth in a cell viability assay.

[18] = test system: LN-405; assay type: functional, cell-based
Description: SANGER: Inhibition of human LN-405 cell growth in a cell viability assay.

[19] = test system: MC-IXC; assay type: functional, cell-based;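 note: growth inhibition of MC-IXC cells, read out with a cell viability assay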
Description: SANGER: Inhibition of human MC-IXC cell growth in a cell viability assay.

[20] = test system: MCF7; assay type: functional, cell-based;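 note: growth inhibition of human MCF7 cells, read out with a cell viability assay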
Description: SANGER: Inhibition of human MCF7 cell growth in a cell viability assay.

[21] = test system: MDA-MB-157; assay type: functional, cell-based
Description: SANGER: Inhibition of human MDA-MB-157 cell growth in a cell viability assay.

[22] = test system: MDA-MB-361; assay type: functional, cell-based
[23] = test system: MEL-HO; assay type: functional, cell-based
Description: SANGER: Inhibition of human MEL-HO cell growth in a cell viability assay.

[24] = test system: MeWo; assay type: functional, cell-based;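 note: growth inhibition of MeWo cells, determined by a cell viability readout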
Description: SANGER: Inhibition of human Mewo cell growth in a cell viability assay.

[25] = test system: NCI-H1563; assay type: functional, cell-based;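 note: growth inhibition of human NCI-H1563 cells, read out with a cell viability assay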
Description: SANGER: Inhibition of human NCI-H1563 cell growth in a cell viability assay.

[26] = test system: NCI-H2052; assay type: functional, cell-based;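 note: growth inhibition of NCI-H2052 cells, read out with a cell viability assay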
Description: SANGER: Inhibition of human NCI-H2052 cell growth in a cell viability assay.

[27] = test system: NCI-H2228; assay type: functional, cell-based;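 note: growth inhibition of human NCI-H2228 cells, read out by a cell viability assay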
Description: SANGER: Inhibition of human NCI-H2228 cell growth in a cell viability assay.

[28] = test system: NCI-H292; assay type: functional, cell-based;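 note: growth inhibition of NCI-H292 cells, read out with a cell viability assay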
Description: SANGER: Inhibition of human NCI-H292 cell growth in a cell viability assay.

[29] = test system: NCI-H460; assay type: functional, cell-based;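 note: cell viability assay scoring growth inhibition of human NCI-H460 cells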
Description: SANGER: Inhibition of human NCI-H460 cell growth in a cell viability assay.

[30] = test system: NCI-H810; assay type: functional, cell-based;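 note: IC50 reflects inhibition of cancer cell line growth, read out with a cell viability assay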
Description: SANGER: Inhibition of human NCI-H810 cell growth in a cell viability assay.

[31] = test system: OAW-28; assay type: functional, cell-based;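 note: growth inhibition of OAW-28 cells, read out with a cell viability assay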
Description: SANGER: Inhibition of human OAW-28 cell growth in a cell viability assay.

[32] = test system: OVCAR-3; assay type: functional, cell-based;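 note: growth inhibition of human OVCAR-3 cells, determined by a cell viability assay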
Description: SANGER: Inhibition of human OVCAR-3 cell growth in a cell viability assay.

[33] = test system: RO82-W-1; assay type: functional, cell-based;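 note: growth inhibition of human RO82-W-1 cells, measured with a cell viability assay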
Description: SANGER: Inhibition of human RO82-W-1 cell growth in a cell viability assay.

[34] = test system: S-117; assay type: functional, cell-based
Description: SANGER: Inhibition of human S-117 cell growth in a cell viability assay.

[35] = test system: SAS; assay type: functional, cell-based;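 note: growth inhibition of SAS cells, read out with a cell viability assay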
Description: SANGER: Inhibition of human SAS cell growth in a cell viability assay.

[36] = test system: SCC-4; assay type: functional, cell-based;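 note: growth inhibition of human SCC-4 cells, read out as cell viability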
Description: SANGER: Inhibition of human SCC-4 cell growth in a cell viability assay.

[37] = test system: SK-HEP1; assay type: functional, cell-based, SK-HEP-1;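 note: cell viability readout used to quantify reduction in proliferation of human SK-HEP-1 cells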
Description: SANGER: Inhibition of human SK-HEP-1 cell growth in a cell viability assay.

[38] = test system: SNU-423; assay type: functional, cell-based
Description: SANGER: Inhibition of human SNU-423 cell growth in a cell viability assay.

[39] = test system: SW1417; assay type: functional, cell-based;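 note: growth inhibition of human SW1417 cells, read out with a cell viability assay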
Description: SANGER: Inhibition of human SW1417 cell growth in a cell viability assay.

[40] = test system: SW48; assay type: functional, cell-based;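 note: growth inhibition of SW48 cells, read out with a cell viability assay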
Description: SANGER: Inhibition of human SW48 cell growth in a cell viability assay.

[41] = test system: SW626; assay type: functional, cell-based;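 note: growth inhibition of SW626 cells, measured with a cell viability assay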
Description: SANGER: Inhibition of human SW626 cell growth in a cell viability assay.

[42] = test system: 647-V; assay type: functional, cell-based;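 note: growth inhibition of 647-V cells, read out with a cell viability assay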
Description: SANGER: Inhibition of human 647-V cell growth in a cell viability assay.

[43] = test system: 786-0; assay type: functional, cell-based
Description: SANGER: Inhibition of human 786-0 cell growth in a cell viability assay.

[44] = test system: 8505C; assay type: functional, cell-based
Description: SANGER: Inhibition of human 8505C cell growth in a cell viability assay.

[45] = test system: BEN; assay type: functional, cell-based;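 note: growth inhibition of the BEN cell line, read out with a cell viability assay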
Description: SANGER: Inhibition of human BEN cell growth in a cell viability assay.

[46] = test system: BPH-1; assay type: functional, cell-based;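 note: cell viability assay measuring growth inhibition of human BPH-1 cells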
Description: SANGER: Inhibition of human BPH-1 cell growth in a cell viability assay.

[47] = test system: BT-20; assay type: functional, cell-based;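 note: cell viability assay measuring suppression of growth in human BT-20 cells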
Description: SANGER: Inhibition of human BT-20 cell growth in a cell viability assay.

[48] = test system: CAL-39; assay type: functional, cell-based;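 note: cell viability assay measuring growth inhibition of CAL-39 cells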
Description: SANGER: Inhibition of human CAL-39 cell growth in a cell viability assay.

[49] = test system: CAL-54; assay type: functional, cell-based;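 note: growth inhibition of CAL-54 cells, read out by a viability measurement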
Description: SANGER: Inhibition of human CAL-54 cell growth in a cell viability assay.

[50] = test system: TGW; assay type: functional, cell-based;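 note: growth inhibition of human TGW cells, read out with a cell viability assay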
Description: SANGER: Inhibition of human TGW cell growth in a cell viability assay.

[51] = test system: U-118-MG; assay type: functional, cell-based
Description: SANGER: Inhibition of human U-118-MG cell growth in a cell viability assay.

[52] = test system: YAPC; assay type: functional, cell-based;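 note: growth inhibition of YAPC cells, measured with a cell viability assay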
Description: SANGER: Inhibition of human YAPC cell growth in a cell viability assay.

[53] = test system: COLO-678; assay type: functional, cell-based
Description: SANGER: Inhibition of human COLO-678 cell growth in a cell viability assay.

[54] = test system: A 172; assay type: functional, cell-based;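 note: growth inhibition of A172 cells, measured with a cell viability readout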
Description: SANGER: Inhibition of human A172 cell growth in a cell viability assay.

[55] = test system: A-375; assay type: functional, cell-based;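 note: growth inhibition of A375 cells, read out with a cell viability assay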
Description: SANGER: Inhibition of human A375 cell growth in a cell viability assay.

[56] = test system: ACHN; assay type: functional, cell-based;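 note: cell viability read-out used to gauge how strongly growth of human ACHN cells is suppressed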
Description: SANGER: Inhibition of human ACHN cell growth in a cell viability assay.

## CC(=O)c1c(C)c2cnc(Nc3ccc(N4CCNCC4)cn3)nc2n(C2CCCC2)c1=O [PALBOCICLIB]
[1]
  IC50: > 4 µM
[2]
  IC50: > 4 µM
[3]
  IC50: > 4 µM
[4]
  IC50: > 4 µM
[5]
  IC50: > 4 µM
[6]
  IC50: > 4 µM
[7]
  IC50: > 4 µM
[8]
  IC50: > 4 µM
[9]
  IC50: 0.565 µM
[10]
  IC50: 0.963 µM
[11]
  IC50: > 4 µM
[12]
  IC50: > 4 µM
[13]
  IC50: > 4 µM
[14]
  IC50: > 4 µM
[15]
  IC50: > 4 µM
[16]
  IC50: > 4 µM
[17]
  IC50: > 4 µM
[18]
  IC50: > 4 µM
[19]
  IC50: > 4 µM
[20]
  IC50: 2.71 µM
[21]
  IC50: > 4 µM
[22]
  IC50: > 4 µM
[23]
  IC50: > 4 µM
[24]
  IC50: 0.937 µM
[25]
  IC50: > 4 µM
[26]
  IC50: > 4 µM
[27]
  IC50: > 4 µM
[28]
  IC50: 2.85 µM
[29]
  IC50: 3.67 µM
[30]
  IC50: > 4 µM
[31]
  IC50: > 4 µM
[32]
  IC50: > 4 µM
[33]
  IC50: 2.62 µM
[34]
  IC50: > 4 µM
[35]
  IC50: 2.2 µM
[36]
  IC50: > 4 µM
[37]
  IC50: 2.59 µM
[38]
  IC50: > 4 µM
[39]
  IC50: > 4 µM
[40]
  IC50: > 4 µM
[41]
  IC50: > 4 µM
[42]
  IC50: > 4 µM
[43]
  IC50: 2.15 µM
[44]
  IC50: > 4 µM
[45]
  IC50: > 4 µM
[46]
  IC50: > 4 µM
[47]
  IC50: > 4 µM
[48]
  IC50: 1.08 µM
[49]
  IC50: 2.2 µM
[50]
  IC50: 1.12 µM
[51]
  IC50: > 4 µM
[52]
  IC50: > 4 µM
[53]
  IC50: > 4 µM

## CC[C@@]1(O)C(=O)OCc2c1cc1n(c2=O)Cc2cc3ccccc3nc2-1 [CAMPTOTHECIN]
[1]
  IC50: 0.00221 µM
[2]
  IC50: 0.0847 µM
[3]
  IC50: 0.00607 µM
[4]
  IC50: 0.0189 µM
[5]
  IC50: 0.00708 µM
[6]
  IC50: 0.00502 µM
[7]
  IC50: 0.00314 µM
[8]
  IC50: 0.0181 µM
[9]
  IC50: 0.00407 µM
[10]
  IC50: 0.000838 µM
[11]
  IC50: 0.0551 µM
[12]
  IC50: 0.0855 µM
[13]
  IC50: 0.0127 µM
[14]
  IC50: 0.0364 µM
[16]
  IC50: 0.0205 µM
[17]
  IC50: 0.00814 µM
[18]
  IC50: > 0.1 µM
[19]
  IC50: 0.000513 µM
[20]
  IC50: 0.00643 µM
[21]
  IC50: 0.00757 µM
[22]
  IC50: 0.0344 µM
[23]
  IC50: 0.00763 µM
[24]
  IC50: 0.047 µM
[26]
  IC50: 0.0283 µM
[27]
  IC50: 0.049 µM
[28]
  IC50: 0.00224 µM
[29]
  IC50: 0.0241 µM
[30]
  IC50: 0.0503 µM
[31]
  IC50: 0.00726 µM
[32]
  IC50: > 0.1 µM
[33]
  IC50: 0.0149 µM
[34]
  IC50: 0.0781 µM
[35]
  IC50: 0.00124 µM
[36]
  IC50: 0.0193 µM
[37]
  IC50: 0.00725 µM
[39]
  IC50: 0.0527 µM
[40]
  IC50: 0.00302 µM
[41]
  IC50: 0.0769 µM
[42]
  IC50: 0.000896 µM
[43]
  IC50: 0.00502 µM
[44]
  IC50: 0.0033 µM
[54]
  IC50: 0.0128 µM
[55]
  IC50: 0.00369 µM
[56]
  IC50: 0.00666 µM
[46]
  IC50: 0.00208 µM
[47]
  IC50: 0.026 µM
[48]
  IC50: 0.0192 µM
[49]
  IC50: 0.00476 µM
[51]
  IC50: 0.019 µM
[52]
  IC50: 0.0296 µM
[53]
  IC50: > 0.1 µM
